The results in this text go back to ChEMBL document CHEMBL1140265, “Inhibitors of HCV NS5B polymerase. Part 1: Evaluation of the southern region of (2Z)-2-(benzoylamino)-3-(5-phenyl-2-furyl)acrylic acid” (Bioorg Med Chem Lett, 2005).

In general, IC50 refers to the midpoint of a concentration-inhibition curve. Low readings indicate higher potency, high ones lower potency. For orientation: Cmax means the peak of the concentration-time curve. As usually defined, the half-life is the time in which the quantity being followed falls by half. A higher half-life goes with slow loss. For orientation: clearance means the rate of elimination divided by the concentration. A lower clearance goes with inefficient removal. The bioavailability is dose-corrected exposure relative to a reference, in per cent. Higher therefore signals good availability. The CC50 is the concentration giving 50% cytotoxicity. Low values mean greater toxicity to the cells, high ones lower toxicity to the cells.

Data set [1] addresses RNA-directed RNA polymerase (Hepacivirus hominis, UniProt O39930). Kind of data set: Inhibitory concentration against Hepatitis C virus NS5B polymerase.
Data set [2] can be described thus: Maximum concentration in plasma levels in rat after 5 mpk dosage administration. Format: ADME, organism-based. Details: dose 5 mpk. Particulars: 5 mg/kg.
The nature of data set [3]: Half-life in rat after 5 mpk dosage administration. Format: ADME, organism-based. As to conditions: in vivo, 5 mg/kg.
Data set [4] is described as follows: Clearance at low levels in rat after 5 mpk dosage administration. As to conditions: in vivo, 5 mg/kg. The data set is classed as ADME, organism-based.
Data set [5] can be described thus: Bioavailability in rat (dose 5 mg/kg). Format: ADME, organism-based. As to conditions: in vivo.
Data set [6] concerns Hepatitis C virus. Nature of the data set: Effective concentration against Hepatitis C virus replication using sub-genomic replicon assay. The data set is classed as functional, Hepacivirus hominis. As to conditions: read-out: ED50 (the source's name). (In general: In antiviral work, replicon cells carry a viral genome segment that copies itself.)
Data set [7] deals with Hepatitis C virus. Kind of data set: Cytotoxic concentration against Hepatitis C virus replication using sub-genomic replicon assay. The data set is classed as functional, Hepacivirus hominis.

Structures are written as SMILES. A value given as a limit tells only on which side of the number the result lay.

Chain of RNA-directed RNA polymerase (O39930 whole entry): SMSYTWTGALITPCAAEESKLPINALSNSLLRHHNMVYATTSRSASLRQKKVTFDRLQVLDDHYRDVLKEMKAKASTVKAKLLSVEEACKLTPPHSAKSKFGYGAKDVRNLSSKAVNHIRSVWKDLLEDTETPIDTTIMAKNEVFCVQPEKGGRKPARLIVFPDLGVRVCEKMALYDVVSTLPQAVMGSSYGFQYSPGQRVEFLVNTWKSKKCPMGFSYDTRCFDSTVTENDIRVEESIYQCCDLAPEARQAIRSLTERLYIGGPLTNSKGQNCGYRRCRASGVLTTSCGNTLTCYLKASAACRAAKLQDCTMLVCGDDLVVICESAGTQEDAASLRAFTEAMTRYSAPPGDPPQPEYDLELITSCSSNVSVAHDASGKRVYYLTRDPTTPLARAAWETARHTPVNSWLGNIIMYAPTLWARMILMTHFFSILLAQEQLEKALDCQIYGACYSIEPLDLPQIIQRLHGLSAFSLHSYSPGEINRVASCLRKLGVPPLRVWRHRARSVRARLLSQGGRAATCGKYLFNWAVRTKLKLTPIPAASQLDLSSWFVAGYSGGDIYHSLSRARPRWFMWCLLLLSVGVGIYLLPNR

Regarding `O=C(O)/C(=C/c1ccc(Oc2ccccc2Br)cc1)NC(=O)c1ccccc1`, half-maximal inhibition in data set [1] (IC50) required 0.1 µM. In data set [2], this compound showed a Cmax of 9 µM. In data set [3], this compound gave a half-life of 1.5 h. In addition, in data set [4], the clearance was 0.2 L/h/kg. For the same compound, the bioavailability in data set [5] amounted to 21%. In addition, the EC50 in data set [6] was 28 µM. In data set [7], this compound yielded a CC50 above 100 µM. In data set [1], `COc1ccccc1Oc1ccc(/C=C(\NC(=O)c2ccccc2)C(=O)O)cc1` had an IC50 of 15 µM. The same measure, in the same setting: in the case of `O=C(O)/C(=C/c1ccc(-c2ccccc2[N+](=O)[O-])o1)NC(=O)c1ccccc1` it was 6.9 µM. As for `NS(=O)(=O)c1ccc(-c2ccc(/C=C(\NC(=O)c3ccccc3)C(=O)O)o2)cc1`, the IC50 in data set [1] was above 100 µM.

In data set [1], `O=C(O)/C(=C/c1ccc(-c2ccccc2)o1)NC(=O)c1ccccc1` registered an IC50 of 6.7 µM. For the same compound, the EC50 in data set [6] was above 100 µM. For the same compound, the CC50 in data set [7] is above 100 µM. As for `O=C(O)/C(=C/c1ccc(-c2ccccc2F)o1)NC(=O)c1ccccc1`, in data set [1], the IC50 turned out to be 3.1 µM.

Take `O=C(O)/C(=C/c1ccc(Oc2c(F)cccc2Cl)cc1)NC(=O)c1ccccc1`: the IC50 in data set [1] turned out to be 0.07 µM.

Compound `CC(C)c1ccccc1Oc1ccc(/C=C(\NC(=O)c2ccccc2)C(=O)O)cc1` returned an IC50 in data set [1] of 28 µM.

Take `O=C(O)/C(=C/c1ccc(Oc2ccccc2-c2ccccc2)cc1)NC(=O)c1ccccc1`: 48 µM corresponded to half-maximal inhibition in data set [1] (IC50).

For the compound `O=C(O)/C(=C/c1ccc(-c2ccc(CO)cc2)o1)NC(=O)c1ccccc1`, the IC50 in data set [1] is above 100 µM.

`O=C(O)/C(=C/c1ccc(-c2ccc(OC(F)(F)F)cc2)o1)NC(=O)c1ccccc1` showed a half-maximal inhibitory concentration (IC50) in data set [1] of 22 µM. The same measure, in the same setting: in the case of `O=C(O)/C(=C/c1ccc(-c2cccc(F)c2)o1)NC(=O)c1ccccc1` it was 3.9 µM; in that of `O=C(O)/C(=C/c1ccc(-c2ccccc2F)s1)NC(=O)c1ccccc1`, 2.6 µM. Same read-out and setting: in the case of `O=C(O)/C(=C/c1ccc(Oc2ccccc2F)cc1)NC(=O)c1ccccc1` it was 6.9 µM; in that of `O=C(O)/C(=C/c1ccc(-c2ccc(Cl)cc2)o1)NC(=O)c1ccccc1`, 4.6 µM; in that of `O=C(O)/C(=C/c1ccc(-c2ccccc2OC(F)(F)F)o1)NC(=O)c1ccccc1`, 4 µM.

In data set [1], `CSc1ccc(-c2ccc(/C=C(\NC(=O)c3ccccc3)C(=O)O)o2)cc1` returned an IC50 of 27 µM. Still for that read-out and setting: in the case of `O=C(O)/C(=C/c1ccc(-c2ccccc2)s1)NC(=O)c1ccccc1` it was 1.5 µM; in that of `CSc1ccccc1Oc1ccc(/C=C(\NC(=O)c2ccccc2)C(=O)O)cc1`, 1.8 µM; in that of `Cc1cccc(Cl)c1Oc1ccc(/C=C(\NC(=O)c2ccccc2)C(=O)O)cc1`, 0.2 µM.

In data set [1], `CC(C)Oc1ccccc1Oc1ccc(/C=C(\NC(=O)c2ccccc2)C(=O)O)cc1` came in with an IC50 of 44 µM. In data set [1], `COc1ccccc1-c1ccc(/C=C(\NC(=O)c2ccccc2)C(=O)O)o1` showed an IC50 of 20 µM. Regarding `O=C(O)/C(=C/c1ccc(Oc2c(Cl)cccc2[N+](=O)[O-])cc1)NC(=O)c1ccccc1`, the IC50 in data set [1] was determined as 5.5 µM. For `O=C(O)/C(=C/c1cncc(-c2ccccc2Cl)c1)NC(=O)c1ccccc1`, the concentration for half-maximal inhibition (IC50) in data set [1] is above 100 µM.

On to `O=C(O)/C(=C/c1ccc(Oc2ccccc2Cl)cc1)NC(=O)c1ccccc1`, for which 0.2 µM corresponded to half-maximal inhibition in data set [1] (IC50). In addition, in data set [2], the Cmax was 22 µM. Moreover, the half-life in data set [3] was 1.9 h. In data set [4], the clearance is 0.31 L/h/kg. Also, in data set [5], the bioavailability is 42%. In data set [6], the EC50 was determined as 60 µM. The CC50 in data set [7] was above 100 µM. In data set [1], `N#Cc1ccccc1Oc1ccc(/C=C(\NC(=O)c2ccccc2)C(=O)O)cc1` returned an IC50 of 47 µM. For the compound `O=C(O)/C(=C/c1ccc(-c2ccc([N+](=O)[O-])cc2)o1)NC(=O)c1ccccc1`, the IC50 in data set [1] was above 100 µM.

Regarding `NS(=O)(=O)c1cccc(-c2ccc(/C=C(\NC(=O)c3ccccc3)C(=O)O)o2)c1`, in data set [1], the IC50 was above 100 µM. Still for that read-out and setting: in the case of `O=C(O)/C(=C/c1ccc(Oc2ccccc2)cc1)NC(=O)c1ccccc1` it was 17 µM. In turn, `O=C(O)/C(=C/c1cccc(-c2ccccc2Cl)c1)NC(=O)c1ccccc1` had an IC50 in data set [1] of 1.3 µM. Turning to `CC(C)(C)c1ccccc1Oc1ccc(/C=C(\NC(=O)c2ccccc2)C(=O)O)cc1`, the IC50 in data set [1] was above 100 µM. The same measure, in the same setting: in the case of `O=C(O)/C(=C/c1ccc(-c2cccc(OC(F)(F)F)c2)o1)NC(=O)c1ccccc1` it was 66 µM.

In the case of `O=C(O)/C(=C/c1ccc(-c2ccccc2Cl)s1)NC(=O)c1ccccc1`, inhibition in data set [1] was half-maximal at 0.66 µM (IC50). On the same count and under the same terms, in the case of `Cc1ccccc1-c1ccc(/C=C(\NC(=O)c2ccccc2)C(=O)O)o1` it was 3 µM; in that of `O=C(O)/C(=C/c1ccc(-c2cccc(Cl)c2)o1)NC(=O)c1ccccc1`, 6 µM. In the case of `O=C(O)/C(=C/c1ccc(-c2ccccc2C(F)(F)F)o1)NC(=O)c1ccccc1`, the IC50 in data set [1] is 5.6 µM. As for `O=C(O)/C(=C/c1ccc(-c2cccc([N+](=O)[O-])c2)o1)NC(=O)c1ccccc1`, half-maximal inhibition in data set [1] (IC50) required 25 µM. `O=C(O)/C(=C/c1ccc(-c2ccccc2CO)s1)NC(=O)c1ccccc1` showed an IC50 in data set [1] of 20 µM.

As to `O=C(O)/C(=C/c1ccc(-c2cccc(CO)c2)o1)NC(=O)c1ccccc1`, in data set [1], the IC50 was above 100 µM. On the same count and under the same terms, in the case of `O=C(O)/C(=C/c1ncc(-c2ccccc2Cl)s1)NC(=O)c1ccccc1` it was 5.2 µM. As for `O=C(O)/C(=C/c1ccc(Oc2c(F)cccc2Br)cc1)NC(=O)c1ccccc1`, the half-inhibitory concentration (IC50) in data set [1] was determined as 0.03 µM. For the same compound, the EC50 in data set [6] was 50 µM. Besides, the CC50 in data set [7] was above 100 µM.

In data set [1], `CCc1ccccc1Oc1ccc(/C=C(\NC(=O)c2ccccc2)C(=O)O)cc1` gave an IC50 of 9.4 µM. On to `O=C(O)/C(=C/c1ccc(-c2cccc(C(F)(F)F)c2)o1)NC(=O)c1ccccc1`, for which the IC50 in data set [1] amounted to 8.7 µM.

Take `O=C(O)/C(=C/c1ccc(Oc2ccccc2I)cc1)NC(=O)c1ccccc1`: the concentration for half-maximal inhibition (IC50) in data set [1] is 0.04 µM. The EC50 in data set [6] is 29 µM. Besides, the CC50 in data set [7] is above 100 µM.

Regarding `O=C(O)/C(=C/c1ccc(-c2ccc(F)cc2)o1)NC(=O)c1ccccc1`, the IC50 in data set [1] was determined as 12 µM. For the compound `O=C(O)/C(=C/c1ccc(Oc2ccccc2C(F)(F)F)cc1)NC(=O)c1ccccc1`, the midpoint of inhibition in data set [1], the IC50, lay at 1.3 µM. In data set [1], `Nc1cccc(Cl)c1Oc1ccc(/C=C(\NC(=O)c2ccccc2)C(=O)O)cc1` displayed an IC50 of 0.31 µM. Same read-out and setting: in the case of `O=C(O)/C(=C/c1ccc(-c2ccccc2Cl)o1)NC(=O)c1ccccc1` it was 1.3 µM. In the case of `O=C(O)/C(=C/c1ccc(Oc2ccccc2[N+](=O)[O-])cc1)NC(=O)c1ccccc1`, the midpoint of inhibition in data set [1], the IC50, lay at 73 µM.

In turn, `Cc1ccccc1-c1ccc(/C=C(\NC(=O)c2ccccc2)C(=O)O)s1` returned an IC50 in data set [1] of 1.4 µM.

For the compound `Cc1ccccc1Oc1ccc(/C=C(\NC(=O)c2ccccc2)C(=O)O)cc1`, the IC50 in data set [1] was 0.58 µM. Same read-out and setting: in the case of `O=C(O)/C(=C/c1ccc(-c2ccc(C(F)(F)F)cc2)o1)NC(=O)c1ccccc1` it was 13 µM; in that of `O=C(O)/C(=C/c1cccc(-c2ccccc2Cl)n1)NC(=O)c1ccccc1`, 11 µM.
